Test results published in PubChem BioAssay (NCI).
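These data come from cells grown in 96-well plates and exposed to compound for 48 hours at five concentrations. Here, GI50 denotes the concentration required for 50% inhibition of growth. The concentration for full growth arrest is given as TGI.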

Columns and labels:
Test in all cases: inhibition of tumour cell growth, NCI panel, 48 h
[1] = test system: 786-0 renal
[2] = test system: A498 renal
[3] = test system: A549 NSCLC
[4] = test system: ACHN renal
[5] = test system: BT-549 breast
[6] = test system: CAKI-1 renal
[7] = test system: CCRF-CEM leukemia
[8] = test system: COLO 205 colon
[9] = test system: DU-145 prostate
[10] = test system: EKVX NSCLC
[11] = test system: HCC-2998 colon
[12] = test system: HCT-116 colon
[13] = test system: HCT-15 colon
[14] = test system: HL-60(TB) leukemia
[15] = test system: HOP-62 NSCLC
[16] = test system: HOP-92 NSCLC
[17] = test system: HS 578T breast
[18] = test system: HT29 colon
[19] = test system: IGROV1 ovarian
[20] = test system: K-562 leukemia
[21] = test system: KM12 colon
[22] = test system: LOX IMVI melanoma
[23] = test system: M14 melanoma
[24] = test system: MALME-3M melanoma
[25] = test system: MCF7 breast
[26] = test system: MDA-MB-231 breast
[27] = test system: MDA-MB-435
[28] = test system: MOLT-4 leukemia
[29] = test system: NCI-H226 lung
[30] = test system: NCI-H23 lung
[31] = test system: NCI-H460 lung
[32] = test system: NCI-H522 lung
[33] = test system: NCI/ADR-RES ovarian
[34] = test system: OVCAR-3 ovarian
[35] = test system: OVCAR-4 ovarian
[36] = test system: OVCAR-5 ovarian
[37] = test system: OVCAR-8 ovarian
[38] = test system: PC-3 prostate
[39] = test system: RPMI-8226 leukemia
[40] = test system: RXF 393 renal
[41] = test system: SF-268 CNS
[42] = test system: SF-295 CNS
[43] = test system: SF-539 CNS
[44] = test system: SK-MEL-2 melanoma
[45] = test system: SK-MEL-28 melanoma
[46] = test system: SK-MEL-5 melanoma
[47] = test system: SK-OV-3 ovarian
[48] = test system: SN12C renal
[49] = test system: SNB-19 CNS
[50] = test system: SNB-75 CNS
[51] = test system: SR leukemia
[52] = test system: SW-620 colon
[53] = test system: T-47D breast
[54] = test system: TK-10 renal
[55] = test system: U251 CNS
[56] = test system: UACC-257 melanoma
[57] = test system: UACC-62 melanoma
[58] = test system: UO-31 renal

Question: For `O=c1oc2ccc(Cl)cc2c(=O)n1-c1cc(C(F)(F)F)cc(C(F)(F)F)c1`, which GI50 [1] is on record?
Answer: 316 nM

Question: And the TGI [1]?
Answer: 1140 nM

Question: What about the GI50 [2] of the same compound?
Answer: 53.1 nM

Question: And the TGI [2]?
Answer: 311 nM

Question: What about the GI50 [3] of the same compound?
Answer: 339 nM

Question: What about the TGI [3] of the same compound?
Answer: 13100 nM

Question: What about the GI50 [4] of the same compound?
Answer: 303 nM

Question: And the TGI [4]?
Answer: 10500 nM

Question: What about the GI50 [5] of the same compound?
Answer: 258 nM

Question: What about the TGI [5] of the same compound?
Answer: 860 nM

Question: And the GI50 [6]?
Answer: 198 nM

Question: And the TGI [6]?
Answer: 689 nM

Question: And the GI50 [7]?
Answer: 388 nM

Question: What about the TGI [7] of the same compound?
Answer: 10200 nM

Question: And the GI50 [8]?
Answer: 1780 nM

Question: What about the TGI [8] of the same compound?
Answer: 3720 nM

Question: And the GI50 [9]?
Answer: 372 nM

Question: What about the TGI [9] of the same compound?
Answer: 13900 nM

Question: And the GI50 [10]?
Answer: 288 nM

Question: And the TGI [10]?
Answer: 2010 nM

Question: What about the GI50 [11] of the same compound?
Answer: 346 nM

Question: What about the TGI [11] of the same compound?
Answer: 3770 nM

Question: What about the GI50 [12] of the same compound?
Answer: 277 nM

Question: And the TGI [12]?
Answer: 1210 nM

Question: And the GI50 [13]?
Answer: 306 nM

Question: And the TGI [13]?
Answer: 1780 nM

Question: What about the GI50 [14] of the same compound?
Answer: 231 nM

Question: What about the TGI [14] of the same compound?
Answer: 553 nM

Question: And the GI50 [15]?
Answer: 352 nM

Question: And the TGI [15]?
Answer: 4360 nM

Question: And the GI50 [16]?
Answer: 112 nM

Question: What about the TGI [16] of the same compound?
Answer: 479 nM

Question: What about the GI50 [17] of the same compound?
Answer: 239 nM

Question: What about the TGI [17] of the same compound?
Answer: 987 nM

Question: What about the GI50 [18] of the same compound?
Answer: 2120 nM

Question: What about the TGI [18] of the same compound?
Answer: 14600 nM

Question: What about the GI50 [19] of the same compound?
Answer: 412 nM

Question: What about the TGI [19] of the same compound?
Answer: 12900 nM

Question: What about the GI50 [20] of the same compound?
Answer: 211 nM

Question: What about the TGI [20] of the same compound?
Answer: > 38000 nM

Question: And the GI50 [21]?
Answer: 342 nM

Question: And the TGI [21]?
Answer: 1320 nM

Question: What about the GI50 [22] of the same compound?
Answer: 366 nM

Question: And the TGI [22]?
Answer: 2330 nM

Question: And the GI50 [23]?
Answer: 300 nM

Question: And the TGI [23]?
Answer: 1780 nM

Question: And the GI50 [24]?
Answer: 222 nM

Question: What about the TGI [24] of the same compound?
Answer: 696 nM

Question: What about the GI50 [25] of the same compound?
Answer: 278 nM

Question: And the TGI [25]?
Answer: 13500 nM

Question: And the GI50 [26]?
Answer: 289 nM

Question: And the TGI [26]?
Answer: 4360 nM

Question: What about the GI50 [27] of the same compound?
Answer: 313 nM

Question: And the TGI [27]?
Answer: 2070 nM

Question: What about the GI50 [28] of the same compound?
Answer: 352 nM

Question: What about the TGI [28] of the same compound?
Answer: 2480 nM

Question: And the GI50 [29]?
Answer: 305 nM

Question: What about the TGI [29] of the same compound?
Answer: 2210 nM

Question: And the GI50 [30]?
Answer: 289 nM

Question: What about the TGI [30] of the same compound?
Answer: 1110 nM

Question: What about the GI50 [31] of the same compound?
Answer: 308 nM

Question: What about the TGI [31] of the same compound?
Answer: 5160 nM

Question: And the GI50 [32]?
Answer: 250 nM

Question: And the TGI [32]?
Answer: 2570 nM

Question: And the GI50 [33]?
Answer: 264 nM

Question: And the TGI [33]?
Answer: 1370 nM

Question: What about the GI50 [34] of the same compound?
Answer: 276 nM

Question: What about the TGI [34] of the same compound?
Answer: 10700 nM

Question: What about the GI50 [35] of the same compound?
Answer: 292 nM

Question: And the TGI [35]?
Answer: 29200 nM

Question: And the GI50 [36]?
Answer: 423 nM

Question: And the TGI [36]?
Answer: 17400 nM

Question: What about the GI50 [37] of the same compound?
Answer: 323 nM

Question: What about the GI50 [38] of the same compound?
Answer: 302 nM

Question: What about the TGI [38] of the same compound?
Answer: 4490 nM

Question: And the GI50 [39]?
Answer: 188 nM

Question: What about the TGI [39] of the same compound?
Answer: 712 nM

Question: What about the GI50 [40] of the same compound?
Answer: 228 nM

Question: What about the TGI [40] of the same compound?
Answer: 746 nM

Question: What about the GI50 [41] of the same compound?
Answer: 262 nM

Question: And the TGI [41]?
Answer: 5500 nM

Question: And the GI50 [42]?
Answer: 206 nM

Question: And the TGI [42]?
Answer: 504 nM

Question: What about the GI50 [43] of the same compound?
Answer: 317 nM

Question: What about the TGI [43] of the same compound?
Answer: 1740 nM

Question: What about the GI50 [44] of the same compound?
Answer: 236 nM

Question: What about the TGI [44] of the same compound?
Answer: 846 nM

Question: What about the GI50 [45] of the same compound?
Answer: 273 nM

Question: What about the TGI [45] of the same compound?
Answer: 1690 nM

Question: And the GI50 [46]?
Answer: 138 nM

Question: What about the TGI [46] of the same compound?
Answer: 336 nM

Question: And the GI50 [47]?
Answer: 205 nM

Question: And the TGI [47]?
Answer: 2380 nM

Question: What about the GI50 [48] of the same compound?
Answer: 259 nM

Question: What about the TGI [48] of the same compound?
Answer: 3800 nM

Question: What about the GI50 [49] of the same compound?
Answer: 293 nM

Question: What about the TGI [49] of the same compound?
Answer: 11700 nM

Question: What about the GI50 [50] of the same compound?
Answer: 201 nM

Question: What about the TGI [50] of the same compound?
Answer: 786 nM

Question: What about the GI50 [51] of the same compound?
Answer: 308 nM

Question: What about the TGI [51] of the same compound?
Answer: > 51000 nM

Question: What about the GI50 [52] of the same compound?
Answer: 328 nM

Question: And the TGI [52]?
Answer: 5950 nM

Question: What about the GI50 [53] of the same compound?
Answer: 229 nM

Question: What about the TGI [53] of the same compound?
Answer: 2400 nM

Question: What about the GI50 [54] of the same compound?
Answer: 395 nM

Question: What about the TGI [54] of the same compound?
Answer: 11000 nM

Question: What about the GI50 [55] of the same compound?
Answer: 254 nM

Question: And the TGI [55]?
Answer: 11600 nM

Question: What about the GI50 [56] of the same compound?
Answer: 233 nM

Question: And the TGI [56]?
Answer: 1600 nM

Question: And the GI50 [57]?
Answer: 147 nM

Question: And the TGI [57]?
Answer: 673 nM

Question: What about the GI50 [58] of the same compound?
Answer: 238 nM

Question: What about the TGI [58] of the same compound?
Answer: 831 nM
